Experimental data from ChEMBL document CHEMBL4507295 (2021).

Legend:
[1] = system: Tyrosine-protein kinase ABL1 (Homo sapiens), P00519 [F317L]; conditions: Compound concentration 1000.0 nM
[2] = system: Tyrosine-protein kinase ABL1 (Homo sapiens), P00519 [H396P]; conditions: Compound concentration 1000.0 nM
[3] = target: Casein kinase I isoform alpha (Homo sapiens) (UniProt P48729); conditions: Compound concentration 1000.0 nM
[4] = target: Serine/threonine-protein kinase DCLK3 (Homo sapiens) (UniProt Q9C098); conditions: Compound concentration 1000.0 nM
[5] = target: Discoidin domain-containing receptor 2 (Homo sapiens) (UniProt Q16832); conditions: Compound concentration 1000.0 nM
[6] = system: Epidermal growth factor receptor (Homo sapiens), P00533 [L858R]; conditions: Compound concentration 1000.0 nM
[7] = target: Mitogen-activated protein kinase 3 (Homo sapiens) (UniProt P27361); conditions: Compound concentration 1000.0 nM
[8] = target: Mitogen-activated protein kinase 15 (Homo sapiens) (UniProt Q8TD08); conditions: Compound concentration 1000.0 nM
[9] = system: Receptor-type tyrosine-protein kinase FLT3 (Homo sapiens), P36888 [R834Q]; conditions: Compound concentration 1000.0 nM
[10] = target: Interleukin-1 receptor-associated kinase 1 (Homo sapiens) (UniProt P51617); conditions: Compound concentration 1000.0 nM
[11] = target: Mitogen-activated protein kinase 8 (Homo sapiens) (UniProt P45983); conditions: Compound concentration 1000.0 nM
[12] = target: Leukocyte tyrosine kinase receptor (Homo sapiens) (UniProt P29376); conditions: Compound concentration 1000.0 nM
[13] = target: Serine/threonine-protein kinase MARK1 (Homo sapiens) (UniProt Q9P0L2); conditions: Compound concentration 1000.0 nM
[14] = target: Dual specificity mitogen-activated protein kinase kinase 2 (Homo sapiens) (UniProt P36507); conditions: Compound concentration 1000.0 nM
[15] = target: Dual specificity mitogen-activated protein kinase kinase 5 (Homo sapiens) (UniProt Q13163); conditions: Compound concentration 1000.0 nM
[16] = target: Macrophage-stimulating protein receptor (Homo sapiens) (UniProt Q04912); conditions: Compound concentration 1000.0 nM
[17] = target: Serine/threonine-protein kinase 24 (Homo sapiens) (UniProt Q9Y6E0); conditions: Compound concentration 1000.0 nM
[18] = target: Myosin light chain kinase, smooth muscle (Homo sapiens) (UniProt Q15746); conditions: Compound concentration 1000.0 nM
[19] = target: Serine/threonine-protein kinase 38 (Homo sapiens) (UniProt Q15208); conditions: Compound concentration 1000.0 nM
[20] = target: Platelet-derived growth factor receptor alpha (Homo sapiens) (UniProt P16234); conditions: Compound concentration 1000.0 nM
[21] = target: Calcium-dependent protein kinase 1 (Plasmodium falciparum) (UniProt P62344); conditions: Compound concentration 1000.0 nM
[22] = system: Phosphatidylinositol 4,5-bisphosphate 3-kinase catalytic subunit alpha isoform (Homo sapiens), P42336 [E545K]; conditions: Compound concentration 1000.0 nM
[23] = target: Phosphatidylinositol 4,5-bisphosphate 3-kinase catalytic subunit delta isoform (Homo sapiens) (UniProt O00329); conditions: Compound concentration 1000.0 nM
[24] = target: Phosphatidylinositol 5-phosphate 4-kinase type-2 gamma (Homo sapiens) (UniProt Q8TBX8); conditions: Compound concentration 1000.0 nM
[25] = target: Serine/threonine-protein kinase D2 (Homo sapiens) (UniProt Q9BZL6); conditions: Compound concentration 1000.0 nM
[26] = target: Protein-tyrosine kinase 2-beta (Homo sapiens) (UniProt Q14289); conditions: Compound concentration 1000.0 nM
[27] = target: Serine/threonine-protein kinase Sgk2 (Homo sapiens) (UniProt Q9HBY8); conditions: Compound concentration 1000.0 nM
[28] = target: Proto-oncogene tyrosine-protein kinase Src (Homo sapiens) (UniProt P12931); conditions: Compound concentration 1000.0 nM
[29] = target: Tyrosine-protein kinase Tec (Homo sapiens) (UniProt P42680); conditions: Compound concentration 1000.0 nM
[30] = target: TGF-beta receptor type-2 (Homo sapiens) (UniProt P37173); conditions: Compound concentration 1000.0 nM
[31] = target: TRAF2 and NCK-interacting protein kinase (Homo sapiens) (UniProt Q9UKE5); conditions: Compound concentration 1000.0 nM
[32] = target: Non-receptor tyrosine-protein kinase TYK2 (Homo sapiens) (UniProt P29597); conditions: Compound concentration 1000.0 nM
[33] = target: Wee1-like protein kinase (Homo sapiens) (UniProt P30291); conditions: Compound concentration 1000.0 nM
[34] = target: Beta-2 adrenergic receptor (Homo sapiens) (UniProt P07550); conditions: Compound concentration 10.0 uM
[35] = target: T1, Muscarinic acetylcholine receptor M5 (Homo sapiens) (UniProt P08912); conditions: Compound concentration 10.0 uM
T1 sequence (whole entry): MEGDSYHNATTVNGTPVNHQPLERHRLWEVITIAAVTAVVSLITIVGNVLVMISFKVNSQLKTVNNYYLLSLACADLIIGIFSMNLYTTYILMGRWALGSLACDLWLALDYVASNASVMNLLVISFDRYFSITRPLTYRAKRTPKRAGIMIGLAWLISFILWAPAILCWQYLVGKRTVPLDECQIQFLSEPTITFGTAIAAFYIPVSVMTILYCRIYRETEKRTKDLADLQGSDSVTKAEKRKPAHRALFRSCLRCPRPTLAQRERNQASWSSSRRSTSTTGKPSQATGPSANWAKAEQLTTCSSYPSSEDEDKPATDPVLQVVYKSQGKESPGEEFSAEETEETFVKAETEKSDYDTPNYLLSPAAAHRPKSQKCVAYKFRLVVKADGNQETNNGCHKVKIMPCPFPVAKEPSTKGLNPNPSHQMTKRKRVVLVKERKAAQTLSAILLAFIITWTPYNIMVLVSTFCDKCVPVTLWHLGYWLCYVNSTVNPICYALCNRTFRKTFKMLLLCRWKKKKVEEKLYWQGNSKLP

[36] = target: GABA-A receptor; anion channel (Rattus norvegicus) (UniProt O09028+P15431+P18506+P18508+P19969+P20236+P23574+P23576+P28471+P28473+P30191+P62813+P63079+P63138+Q91ZM7+Q9ES14); conditions: Compound concentration 10.0 uM

Sequence of Serine/threonine-protein kinase 38 (Homo sapiens) (Q15208 2-465 limits assumed): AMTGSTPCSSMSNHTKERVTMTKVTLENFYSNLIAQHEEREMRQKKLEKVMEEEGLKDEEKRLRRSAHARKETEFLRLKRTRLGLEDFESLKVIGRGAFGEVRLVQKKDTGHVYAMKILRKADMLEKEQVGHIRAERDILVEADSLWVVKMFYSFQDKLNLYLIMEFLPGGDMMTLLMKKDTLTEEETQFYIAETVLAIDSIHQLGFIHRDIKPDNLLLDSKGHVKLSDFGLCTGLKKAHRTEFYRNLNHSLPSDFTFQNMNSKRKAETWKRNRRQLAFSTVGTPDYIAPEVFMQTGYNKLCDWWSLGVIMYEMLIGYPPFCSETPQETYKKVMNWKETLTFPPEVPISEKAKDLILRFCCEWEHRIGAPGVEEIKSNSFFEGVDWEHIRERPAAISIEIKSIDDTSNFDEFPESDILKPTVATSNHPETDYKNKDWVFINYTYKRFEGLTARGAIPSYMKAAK
Sequence of Beta-2 adrenergic receptor (Homo sapiens) (P07550 whole entry, looked up): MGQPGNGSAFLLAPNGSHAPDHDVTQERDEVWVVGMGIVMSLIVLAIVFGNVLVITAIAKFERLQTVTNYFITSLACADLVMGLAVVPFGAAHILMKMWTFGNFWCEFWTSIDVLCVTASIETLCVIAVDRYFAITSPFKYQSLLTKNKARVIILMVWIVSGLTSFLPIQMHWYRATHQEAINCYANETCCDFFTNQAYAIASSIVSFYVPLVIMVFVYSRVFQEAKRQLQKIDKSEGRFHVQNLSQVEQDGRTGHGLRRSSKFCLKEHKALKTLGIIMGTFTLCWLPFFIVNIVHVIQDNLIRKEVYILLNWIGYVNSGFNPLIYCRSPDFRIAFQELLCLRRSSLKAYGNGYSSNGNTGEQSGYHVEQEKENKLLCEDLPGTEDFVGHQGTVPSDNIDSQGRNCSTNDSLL
Sequence of Mitogen-activated protein kinase 15 (Homo sapiens) (Q8TD08 whole entry): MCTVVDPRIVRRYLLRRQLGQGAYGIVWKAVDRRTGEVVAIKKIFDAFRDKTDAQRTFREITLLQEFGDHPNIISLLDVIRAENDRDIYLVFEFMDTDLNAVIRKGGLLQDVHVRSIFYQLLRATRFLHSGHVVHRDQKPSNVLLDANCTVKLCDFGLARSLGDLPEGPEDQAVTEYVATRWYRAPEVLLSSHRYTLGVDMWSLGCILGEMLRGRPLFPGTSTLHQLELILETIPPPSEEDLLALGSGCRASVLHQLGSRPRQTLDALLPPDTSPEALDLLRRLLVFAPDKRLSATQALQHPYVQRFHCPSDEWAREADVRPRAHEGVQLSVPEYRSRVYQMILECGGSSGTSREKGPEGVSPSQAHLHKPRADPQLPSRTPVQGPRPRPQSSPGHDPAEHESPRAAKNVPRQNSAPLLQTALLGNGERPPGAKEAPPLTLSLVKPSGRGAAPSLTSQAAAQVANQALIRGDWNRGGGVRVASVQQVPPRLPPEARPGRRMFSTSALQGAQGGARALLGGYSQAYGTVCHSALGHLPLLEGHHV
Sequence of Serine/threonine-protein kinase DCLK3 (Homo sapiens) (Q9C098 whole entry, the tested form may be a part): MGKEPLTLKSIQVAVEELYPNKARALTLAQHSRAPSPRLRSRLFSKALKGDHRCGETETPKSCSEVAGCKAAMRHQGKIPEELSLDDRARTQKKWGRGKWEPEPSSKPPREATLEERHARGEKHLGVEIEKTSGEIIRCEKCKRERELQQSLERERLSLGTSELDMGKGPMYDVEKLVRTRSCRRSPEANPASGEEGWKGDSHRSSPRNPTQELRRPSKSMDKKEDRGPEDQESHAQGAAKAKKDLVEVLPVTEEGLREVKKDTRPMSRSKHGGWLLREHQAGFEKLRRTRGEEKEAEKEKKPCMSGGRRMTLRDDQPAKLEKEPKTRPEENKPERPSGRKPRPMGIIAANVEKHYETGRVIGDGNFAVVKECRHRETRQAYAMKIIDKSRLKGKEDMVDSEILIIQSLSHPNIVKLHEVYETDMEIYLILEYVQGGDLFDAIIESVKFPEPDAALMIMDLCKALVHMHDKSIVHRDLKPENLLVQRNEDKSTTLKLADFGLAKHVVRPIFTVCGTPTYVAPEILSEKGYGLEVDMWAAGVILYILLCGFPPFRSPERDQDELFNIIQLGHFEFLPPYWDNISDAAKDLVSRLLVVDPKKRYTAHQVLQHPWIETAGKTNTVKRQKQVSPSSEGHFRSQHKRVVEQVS
Sequence of Serine/threonine-protein kinase 24 (Homo sapiens) (Q9Y6E0 whole entry, looked up): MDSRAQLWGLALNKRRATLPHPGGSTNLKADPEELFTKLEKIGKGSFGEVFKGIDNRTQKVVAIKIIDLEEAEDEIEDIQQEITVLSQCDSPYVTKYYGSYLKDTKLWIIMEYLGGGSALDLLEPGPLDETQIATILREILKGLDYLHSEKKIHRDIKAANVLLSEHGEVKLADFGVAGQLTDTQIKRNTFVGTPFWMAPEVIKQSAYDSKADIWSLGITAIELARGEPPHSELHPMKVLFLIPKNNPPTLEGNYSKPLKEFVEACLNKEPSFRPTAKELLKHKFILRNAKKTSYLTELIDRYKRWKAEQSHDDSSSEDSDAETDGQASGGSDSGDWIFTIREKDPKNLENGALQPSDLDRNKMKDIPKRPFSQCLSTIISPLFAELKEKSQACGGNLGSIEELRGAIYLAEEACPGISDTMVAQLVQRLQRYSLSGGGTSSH
Sequence of Phosphatidylinositol 4,5-bisphosphate 3-kinase catalytic subunit delta isoform (Homo sapiens) (O00329 whole entry, canonical isoform): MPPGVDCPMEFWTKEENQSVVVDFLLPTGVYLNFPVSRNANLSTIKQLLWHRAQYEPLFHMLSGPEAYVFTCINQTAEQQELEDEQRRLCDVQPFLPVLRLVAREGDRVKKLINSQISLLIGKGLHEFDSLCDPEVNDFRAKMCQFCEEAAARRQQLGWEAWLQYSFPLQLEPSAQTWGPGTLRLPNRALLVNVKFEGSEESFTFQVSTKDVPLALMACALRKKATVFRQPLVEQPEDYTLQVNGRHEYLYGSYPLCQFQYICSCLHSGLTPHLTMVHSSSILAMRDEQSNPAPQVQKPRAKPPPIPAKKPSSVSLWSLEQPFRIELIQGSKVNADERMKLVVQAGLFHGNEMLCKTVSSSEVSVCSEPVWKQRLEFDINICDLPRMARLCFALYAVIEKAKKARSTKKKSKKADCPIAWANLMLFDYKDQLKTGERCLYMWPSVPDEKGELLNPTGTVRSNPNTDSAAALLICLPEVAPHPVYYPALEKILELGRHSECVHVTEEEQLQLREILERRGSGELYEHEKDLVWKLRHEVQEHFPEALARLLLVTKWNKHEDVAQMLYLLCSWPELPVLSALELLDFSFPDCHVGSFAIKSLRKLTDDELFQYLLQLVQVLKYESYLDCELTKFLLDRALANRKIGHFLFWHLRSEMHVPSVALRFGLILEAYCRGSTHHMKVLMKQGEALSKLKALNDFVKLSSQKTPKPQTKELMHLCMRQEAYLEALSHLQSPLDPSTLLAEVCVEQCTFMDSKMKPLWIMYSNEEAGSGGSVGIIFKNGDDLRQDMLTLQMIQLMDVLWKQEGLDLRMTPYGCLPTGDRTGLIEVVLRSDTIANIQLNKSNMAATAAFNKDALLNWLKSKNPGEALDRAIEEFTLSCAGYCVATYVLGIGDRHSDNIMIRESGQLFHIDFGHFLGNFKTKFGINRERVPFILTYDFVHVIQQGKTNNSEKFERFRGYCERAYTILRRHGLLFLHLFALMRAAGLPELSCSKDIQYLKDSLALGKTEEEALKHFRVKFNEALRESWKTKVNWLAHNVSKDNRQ
Sequence of Proto-oncogene tyrosine-protein kinase Src (Homo sapiens) (P12931 2-536 limits assumed): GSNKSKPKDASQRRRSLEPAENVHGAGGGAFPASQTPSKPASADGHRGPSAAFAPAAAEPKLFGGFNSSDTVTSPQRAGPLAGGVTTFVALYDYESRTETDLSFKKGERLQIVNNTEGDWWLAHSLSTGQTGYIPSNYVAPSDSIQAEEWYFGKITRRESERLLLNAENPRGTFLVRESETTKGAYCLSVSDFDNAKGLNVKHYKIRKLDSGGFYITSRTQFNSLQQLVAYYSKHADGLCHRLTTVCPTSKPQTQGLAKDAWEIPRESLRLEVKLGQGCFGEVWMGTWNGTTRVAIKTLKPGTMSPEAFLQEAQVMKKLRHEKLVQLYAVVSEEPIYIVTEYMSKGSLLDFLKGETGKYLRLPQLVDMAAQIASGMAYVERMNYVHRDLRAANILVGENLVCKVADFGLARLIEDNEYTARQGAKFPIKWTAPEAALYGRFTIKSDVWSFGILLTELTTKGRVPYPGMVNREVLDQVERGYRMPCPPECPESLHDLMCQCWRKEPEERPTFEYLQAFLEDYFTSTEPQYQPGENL
Sequence of TGF-beta receptor type-2 (Homo sapiens) (P37173 whole entry): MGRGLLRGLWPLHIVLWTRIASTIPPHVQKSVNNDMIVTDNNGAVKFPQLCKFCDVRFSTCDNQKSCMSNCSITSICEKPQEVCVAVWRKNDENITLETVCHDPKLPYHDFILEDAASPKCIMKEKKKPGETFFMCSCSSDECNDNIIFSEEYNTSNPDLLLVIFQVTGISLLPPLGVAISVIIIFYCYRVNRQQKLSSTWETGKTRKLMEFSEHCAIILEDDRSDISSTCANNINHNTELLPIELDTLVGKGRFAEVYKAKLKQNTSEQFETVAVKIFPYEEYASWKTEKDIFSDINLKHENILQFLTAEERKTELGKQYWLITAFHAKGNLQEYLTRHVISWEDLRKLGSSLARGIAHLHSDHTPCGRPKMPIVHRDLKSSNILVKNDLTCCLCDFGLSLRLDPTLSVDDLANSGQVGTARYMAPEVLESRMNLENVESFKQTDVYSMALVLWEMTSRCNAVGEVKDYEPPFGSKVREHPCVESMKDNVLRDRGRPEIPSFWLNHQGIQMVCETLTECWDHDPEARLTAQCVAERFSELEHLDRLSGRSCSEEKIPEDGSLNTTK
Sequence of Casein kinase I isoform alpha (Homo sapiens) (P48729 2-337 limits assumed): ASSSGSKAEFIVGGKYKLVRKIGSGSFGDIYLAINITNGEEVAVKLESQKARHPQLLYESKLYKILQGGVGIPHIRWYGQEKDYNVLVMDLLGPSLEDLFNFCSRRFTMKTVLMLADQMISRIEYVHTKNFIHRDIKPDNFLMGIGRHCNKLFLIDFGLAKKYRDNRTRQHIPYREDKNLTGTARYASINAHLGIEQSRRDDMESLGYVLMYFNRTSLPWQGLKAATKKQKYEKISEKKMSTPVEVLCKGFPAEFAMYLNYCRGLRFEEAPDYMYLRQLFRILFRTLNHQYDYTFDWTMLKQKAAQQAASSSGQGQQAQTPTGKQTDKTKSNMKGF

N#CC1(c2ccccn2)CCN(Cc2cc(C(=O)N3CCCC3)c(=O)n3ccccc23)CC1
inactive: residual activity [1] 92% | residual activity [2] 77% | residual activity [3] 79% | residual activity [4] 100% | residual activity [5] 100% | residual activity [6] 87% | residual activity [7] 91% | residual activity [8] 92% | residual activity [9] 100% | residual activity [10] 100% | residual activity [11] 96% | residual activity [12] 90% | residual activity [13] 100% | residual activity [14] 91% | residual activity [15] 100% | residual activity [16] 100% | residual activity [17] 87% | residual activity [18] 100% | residual activity [19] 64% | residual activity [20] 97% | residual activity [21] 84% | residual activity [22] 76% | residual activity [23] 61% | residual activity [24] 58% | residual activity [25] 85% | residual activity [26] 86% | residual activity [27] 100% | residual activity [28] 56% | residual activity [29] 100% | residual activity [30] 93% | residual activity [31] 100% | residual activity [32] 91% | residual activity [33] 74% | inhibition [34] 15.8% | inhibition [35] 0.56% | inhibition [36] 21.8%

N#CC1(c2ccccn2)CCN(Cc2cc(C(=O)O)c(=O)n3ccccc23)CC1 [MSD-M1PAM]
inactive: residual activity [1] 57% | residual activity [2] 80% | residual activity [3] 100% | residual activity [4] 89% | residual activity [5] 100% | residual activity [6] 86% | residual activity [7] 100% | residual activity [8] 100% | residual activity [9] 100% | residual activity [10] 77% | residual activity [11] 85% | residual activity [12] 100% | residual activity [13] 94% | residual activity [14] 100% | residual activity [15] 62% | residual activity [16] 100% | residual activity [17] 100% | residual activity [18] 87% | residual activity [19] 93% | residual activity [20] 90% | residual activity [21] 88% | residual activity [22] 100% | residual activity [23] 91% | residual activity [24] 99% | residual activity [25] 99% | residual activity [26] 100% | residual activity [27] 86% | residual activity [28] 100% | residual activity [29] 100% | residual activity [30] 93% | residual activity [31] 100% | residual activity [32] 99% | residual activity [33] 99% | inhibition [34] 13.9% | inhibition [35] 4.74% | inhibition [36] 8.92%
